#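 The compound was tested at five concentrations on cells cultured in 96-well plates, with a 48-hour exposure period. GI50 = concentration required for 50% inhibition of growth. TGI: concentration producing complete growth inhibition.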
# Legend:
# Test in all cases: DTP human tumour cell line panel, 48 h
# [1] = test system: 786-0 renal
# [2] = test system: A498 renal
# [3] = test system: A549 NSCLC
# [4] = test system: ACHN renal
# [5] = test system: BT-549 breast
# [6] = test system: CAKI-1 renal
# [7] = test system: CCRF-CEM leukemia
# [8] = test system: COLO 205 colon
# [9] = test system: DU-145 prostate
# [10] = test system: EKVX NSCLC
# [11] = test system: HCC-2998 colon
# [12] = test system: HCT-116 colon
# [13] = test system: HCT-15 colon
# [14] = test system: HL-60(TB) leukemia
# [15] = test system: HOP-62 NSCLC
# [16] = test system: HOP-92 NSCLC
# [17] = test system: HS 578T breast
# [18] = test system: HT29 colon
# [19] = test system: IGROV1 ovarian
# [20] = test system: K-562 leukemia
# [21] = test system: KM12 colon
# [22] = test system: LOX IMVI melanoma
# [23] = test system: M14 melanoma
# [24] = test system: MALME-3M melanoma
# [25] = test system: MCF7 breast
# [26] = test system: MDA-MB-231 breast
# [27] = test system: MDA-MB-435
# [28] = test system: MOLT-4 leukemia
# [29] = test system: NCI-H226 lung
# [30] = test system: NCI-H23 lung
# [31] = test system: NCI-H460 lung
# [32] = test system: NCI-H522 lung
# [33] = test system: NCI/ADR-RES ovarian
# [34] = test system: OVCAR-3 ovarian
# [35] = test system: OVCAR-4 ovarian
# [36] = test system: OVCAR-5 ovarian
# [37] = test system: OVCAR-8 ovarian
# [38] = test system: PC-3 prostate
# [39] = test system: RPMI-8226 leukemia
# [40] = test system: RXF 393 renal
# [41] = test system: SF-268 CNS
# [42] = test system: SF-295 CNS
# [43] = test system: SF-539 CNS
# [44] = test system: SK-MEL-2 melanoma
# [45] = test system: SK-MEL-28 melanoma
# [46] = test system: SK-MEL-5 melanoma
# [47] = test system: SK-OV-3 ovarian
# [48] = test system: SN12C renal
# [49] = test system: SNB-19 CNS
# [50] = test system: SNB-75 CNS
# [51] = test system: SR leukemia
# [52] = test system: SW-620 colon
# [53] = test system: T-47D breast
# [54] = test system: TK-10 renal
# [55] = test system: U251 CNS
# [56] = test system: UACC-257 melanoma
# [57] = test system: UACC-62 melanoma
# [58] = test system: UO-31 renal
structure (smiles),measurement,setting,value
CN1CCN(Cc2ccc(NC(=O)c3nc4ccc5[nH]ncc5c4c4c3CCCC4)cc2C(F)(F)F)CC1,GI50,[1],895 nM
same,TGI,[1],1730 nM
same,GI50,[2],977 nM
same,TGI,[2],2320 nM
same,GI50,[3],890 nM
same,TGI,[3],1790 nM
same,GI50,[4],862 nM
same,TGI,[4],1550 nM
same,GI50,[5],2130 nM
same,TGI,[5],4240 nM
same,GI50,[6],816 nM
same,TGI,[6],1530 nM
same,GI50,[7],1120 nM
same,TGI,[7],2990 nM
same,GI50,[8],880 nM
same,TGI,[8],1730 nM
same,GI50,[9],902 nM
same,TGI,[9],1630 nM
same,GI50,[10],802 nM
same,TGI,[10],1530 nM
same,GI50,[11],867 nM
same,TGI,[11],1630 nM
same,GI50,[12],855 nM
same,TGI,[12],1710 nM
same,GI50,[13],792 nM
same,TGI,[13],1520 nM
same,GI50,[14],943 nM
same,TGI,[14],2020 nM
same,GI50,[15],967 nM
same,TGI,[15],1920 nM
same,GI50,[16],653 nM
same,TGI,[16],1350 nM
same,GI50,[17],922 nM
same,TGI,[17],1970 nM
same,GI50,[18],894 nM
same,TGI,[18],1810 nM
same,GI50,[19],883 nM
same,TGI,[19],1670 nM
same,GI50,[20],701 nM
same,TGI,[20],1960 nM
same,GI50,[21],860 nM
same,TGI,[21],1610 nM
same,GI50,[22],846 nM
same,TGI,[22],1550 nM
same,GI50,[23],902 nM
same,TGI,[23],1770 nM
same,GI50,[24],764 nM
same,TGI,[24],1530 nM
same,GI50,[25],848 nM
same,TGI,[25],1690 nM
same,GI50,[26],880 nM
same,TGI,[26],1650 nM
same,GI50,[27],841 nM
same,TGI,[27],1560 nM
same,GI50,[28],995 nM
same,TGI,[28],2390 nM
same,GI50,[29],862 nM
same,TGI,[29],1770 nM
same,GI50,[30],901 nM
same,TGI,[30],1740 nM
same,GI50,[31],906 nM
same,TGI,[31],1740 nM
same,GI50,[32],922 nM
same,TGI,[32],1860 nM
same,GI50,[33],847 nM
same,TGI,[33],1580 nM
same,GI50,[34],868 nM
same,TGI,[34],1600 nM
same,GI50,[35],861 nM
same,TGI,[35],1670 nM
same,GI50,[36],843 nM
same,TGI,[36],1580 nM
same,GI50,[37],998 nM
same,TGI,[37],2080 nM
same,GI50,[38],866 nM
same,TGI,[38],1660 nM
same,GI50,[39],1110 nM
same,TGI,[39],2690 nM
same,GI50,[40],806 nM
same,TGI,[40],1530 nM
same,GI50,[41],865 nM
same,TGI,[41],1700 nM
same,GI50,[42],879 nM
same,TGI,[42],1650 nM
same,GI50,[43],831 nM
same,TGI,[43],1540 nM
same,GI50,[44],1030 nM
same,TGI,[44],2200 nM
same,GI50,[45],862 nM
same,TGI,[45],1580 nM
same,GI50,[46],852 nM
same,TGI,[46],1540 nM
same,GI50,[47],7080 nM
same,TGI,[47],14000 nM
same,GI50,[48],877 nM
same,TGI,[48],1650 nM
same,GI50,[49],868 nM
same,TGI,[49],1620 nM
same,GI50,[50],770 nM
same,TGI,[50],1490 nM
same,GI50,[51],469 nM
same,TGI,[51],3480 nM
same,GI50,[52],892 nM
same,TGI,[52],1740 nM
same,GI50,[53],926 nM
same,TGI,[53],2030 nM
same,GI50,[54],846 nM
same,TGI,[54],1620 nM
same,GI50,[55],909 nM
same,TGI,[55],1780 nM
same,GI50,[56],920 nM
same,TGI,[56],1840 nM
same,GI50,[57],905 nM
same,TGI,[57],1740 nM
same,GI50,[58],785 nM
same,TGI,[58],1480 nM

# From PubChem BioAssay (NCI)
